Data from ChEMBL document CHEMBL5032498, “Discovery of Potent and Broad-Spectrum Pyrazolopyridine-Containing Antivirals against Enteroviruses D68, A71, and Coxsackievirus B3 by Targeting the Viral 2C Protein” (J Med Chem, 2021).

Experiments:
enterovirus D68 [1] = assay: Anti-viral activity against Enterovirus D68 US/KY/14-18953 infected in human RD cells assessed as reduction in virus induced cytopathic effect incubated for 3 days by CPE assay; assay type: functional, organism-based; conditions: Enterovirus D, US/KY/14-18953, RD, 72 h
[2] = Cytotoxicity against human RD cells incubated for 3 days by neutral red uptake method; assay type: cell-based, Rhabdomyosarcoma cell; conditions: time 3 day
[3] = Selectivity index, ratio of CC50 for human RD cells to EC50 for Enterovirus D68 US/KY/14-18953 in human RD cells; assay type: toxicity, cell-based; conditions: read-out: Ratio CC50/EC50
enterovirus D68 [4] = assay: Anti-viral activity against Enterovirus D68 US/MO/14-18947 infected in human RD cells assessed as reduction in virus induced cytopathic effect incubated for 3 days by CPE assay; assay type: functional, organism-based; conditions: Enterovirus D, US/MO/14-18947, RD, 72 h
[5] = Cytotoxicity against Enterovirus A71 Tainan/4643/1998 infected human RD cells incubated for 3 days by neutral red uptake method; assay type: functional; conditions: Rhabdomyosarcoma cell, 72 h, time 3 day
[6] = Selectivity index, ratio of CC50 for human RD cells to EC50 for Enterovirus A71 Tainan/4643/1998 in human RD cells; assay type: toxicity, cell-based; conditions: read-out: Ratio CC50/EC50
[7] = Selectivity index, ratio of CC50 for african green monkey Vero cells to EC50 for Coxsackievirus B3 in green monkey Vero cells; assay type: toxicity, cell-based; conditions: read-out: Ratio CC50/EC50
Coxsackievirus B3 = assay: Anti-viral activity against Coxsackievirus B3 infected in green monkey Vero cells assessed as reduction in virus induced cytopathic effect incubated for 3 days by CPE assay; assay type: functional, organism-based; conditions: Enterovirus B, 72 h
enterovirus D68 [8] = assay: Anti-viral activity against Enterovirus D68 US/MO/14-18949 infected in human RD cells assessed as reduction in virus induced cytopathic effect incubated for 3 days by CPE assay; assay type: functional, organism-based; conditions: Enterovirus D, US/MO/14-18949, RD, 72 h
[9] = Cytotoxicity against Enterovirus D68 US/MO/14-18947 infected human RD cells incubated for 3 days by neutral red uptake method; assay type: functional; conditions: Rhabdomyosarcoma cell, 72 h, pooled result: one value given for 4 cell lines, strains, targets or settings, time 3 day
[10] = Cytotoxicity against Enterovirus D68 US/IL/14-18952 infected human RD cells incubated for 3 days by neutral red uptake method; assay type: functional; conditions: Rhabdomyosarcoma cell, 72 h, time 3 day
[11] = Cytotoxicity against Enterovirus A71 MP4 infected human RD cells incubated for 3 days by neutral red uptake method; assay type: functional; conditions: Rhabdomyosarcoma cell, 72 h, time 3 day
[12] = Selectivity index, ratio of CC50 for human RD cells to EC50 for Enterovirus A71 USA/CT/2016-19519 infected in human RD cells; assay type: toxicity, cell-based; conditions: read-out: Ratio CC50/EC50
[13] = Selectivity index, ratio of CC50 for human RD cells to EC50 for Enterovirus A71 MP4 in human RD cells; assay type: toxicity, cell-based; conditions: read-out: Ratio CC50/EC50
enterovirus D68 [14] = assay: Anti-viral activity against Enterovirus D68 US/MO/14-18947 infected in human RD cells assessed as inhibition of plaque formation incubated for 3 days by plaque assay based crystal violet staining analysis; assay type: functional, organism-based; conditions: Enterovirus D, US/MO/14-18947, RD, 72 h
Enterovirus = assay: Anti-viral activity against Enterovirus D68 US/MO/14-18947 infected in human SH-SY5Y cells assessed as inhibition of virus replication by immunofluorescence staining using anti-VPI antibody; assay type: functional, organism-based; conditions: D68 US/MO/14-18947, SH-SY5Y
Enterovirus A71 [15] = assay: Anti-viral activity against Enterovirus A71 Tainan/4643/1998 infected in human RD cells assessed as reduction in virus induced cytopathic effect incubated for 3 days by CPE assay; assay type: functional, organism-based; conditions: Enterovirus A, Tainan/4643/1998, RD, 72 h
enterovirus D68 [16] = assay: Anti-viral activity against Enterovirus D68 US/IL/14-18952 infected in human RD cells assessed as reduction in virus induced cytopathic effect incubated for 3 days by CPE assay; assay type: functional, organism-based; conditions: Enterovirus D, US/IL/14-18952, RD, 72 h
Enterovirus A71 [17] = assay: Anti-viral activity against Enterovirus A71 MP4 infected in human RD cells assessed as reduction in virus induced cytopathic effect incubated for 3 days by CPE assay; assay type: functional, organism-based; conditions: Enterovirus A, 72 h
enterovirus D68 [18] = assay: Antiviral activity against Enterovirus D68 US/MO/14-18947 harboring 2C protein D183V/D323G drug resistant mutant by CPE assay followed by viral 2C gene sequencing; assay type: functional, organism-based; conditions: Enterovirus D
enterovirus D68 [19] = assay: Anti-viral activity against Enterovirus D68 US/IL/14-18956 infected in human RD cells assessed as reduction in virus induced cytopathic effect incubated for 3 days by CPE assay; assay type: functional, organism-based; conditions: Enterovirus D, US/IL/14-18956, RD, 72 h

## CC(C)n1ncc2c(C(=O)Nc3ccccn3)cc(-c3cccs3)nc21
Enterovirus D68 [1]
  EC50: 200 nM
[2]
  CC50 at 72 h: > 50 µM
[3]
  selectivity ratio: > 250
Enterovirus D68 [4]
  EC50: 100 nM

## CCC(C)n1ncc2c(C(=O)NCCN(C)C)cc(C3CC3)nc21 (centres undefined)
[5]
  CC50: 40.7 µM

## CNCCNC(=O)c1cc(C)nc2c1cnn2C(C)C
[3]
  selectivity ratio: > 130
[6]
  selectivity ratio: > 600
[7]
  selectivity ratio: > 214

## Cc1cc(C(=O)NCCN(C)C)c2c(C)nn(C(C)(C)C)c2n1
Coxsackievirus B3
  EC50: 2100 nM
Enterovirus D68 [4]
  EC50: 400 nM
Enterovirus D68 [8]
  EC50: 700 nM
[9]
  CC50: 117 µM
[10]
  CC50: 117 µM
[11]
  CC50: 117 µM
[12]
  selectivity ratio: 89.7
[13]
  selectivity ratio: 58.3
Enterovirus D68 [14]
  EC50: 130 nM
Enterovirus
  EC50: 340 nM

## Cc1cc(C(=O)NCCN)c2cnn(C(C)C)c2n1
[3]
  selectivity ratio: > 63.8
[6]
  selectivity ratio: > 429
[7]
  selectivity ratio: > 78.9

## CC(C)c1cc(C(=O)NCCN)c2cnn(C(C)C)c2n1
Enterovirus D68 [1]
  EC50: 600 nM
[2]
  CC50 at 72 h: 170 µM

## CC(C)n1ncc2c(C(=O)NCCN(C)C)cc(C(C)(C)C)nc21
[2]
  CC50 at 72 h: 31.4 µM

## CCCn1ncc2c(C(=O)NCCN(C)C)cc(C3CC3)nc21
Enterovirus A71 [15]
  EC50: 2000 nM
[2]
  CC50 at 72 h: 57.7 µM

## CC(C)n1ncc2c(C(=O)NCCN(C)C)cc(C3CC3)nc21
[2]
  CC50 at 72 h: 200 µM
[5]
  CC50: 200 µM
Enterovirus D68 [4]
  EC50: 70 nM
Enterovirus D68 [8]
  EC50: 100 nM
Enterovirus D68 [16]
  EC50: 40 nM
[9]
  CC50: 200 µM
[10]
  CC50: 200 µM
Enterovirus A71 [17]
  EC50: 100 nM
Enterovirus D68 [14]
  EC50: 25 nM
Enterovirus D68 [18]
  EC50: 1900 nM

## Cc1cc(C(=O)NC2CCN(C)C2)c2cnn(C(C)C)c2n1 (centres undefined)
[3]
  selectivity ratio: > 167
[6]
  selectivity ratio: > 600
[7]
  selectivity ratio: > 375

## CC(C)n1ncc2c(C(=O)NCCN)cc(C3CC3)nc21
Enterovirus A71 [15]
  EC50: 400 nM
[5]
  CC50: 259 µM

## CC(C)n1ncc2c(C(=O)NCCCN(C)C)cc(C3CC3)nc21
[5]
  CC50: 74.1 µM
[7]
  selectivity ratio: > 500

## CC(CN)NC(=O)c1cc(C2CC2)nc2c1cnn2C(C)C (centres undefined)
Enterovirus D68 [1]
  EC50: 300 nM
[5]
  CC50: 113 µM

## Cc1cc(C(=O)NC2CN(C)C2)c2cnn(C(C)C)c2n1
[3]
  selectivity ratio: > 26.5
[6]
  selectivity ratio: > 41.1
[7]
  selectivity ratio: > 78.9

## Cc1nn(C(C)(C)C)c2nc(C3CC3)cc(C(=O)NCCN(C)C)c12
[2]
  CC50 at 72 h: 45.2 µM

## CC(C)n1ncc2c(C(=O)NCCN)cc(C(C)(C)C)nc21
[2]
  CC50 at 72 h: 24.6 µM

## CN(C)CCNC(=O)c1cc(C2CC2)nc2c1cnn2C
[2]
  CC50 at 72 h: > 300 µM
[3]
  selectivity ratio: > 30.6

## Cc1cc(C(=O)NCCN(C)C)c2cnn(C(C)C)c2n1
[5]
  CC50: 112 µM
[7]
  selectivity ratio: > 1500

## CC(C1CC1)n1ncc2c(C(=O)NCCN(C)C)cc(C3CC3)nc21 (centres undefined)
[5]
  CC50: 28.4 µM

## CCn1ncc2c(C(=O)NCCN(C)C)cc(C3CC3)nc21
[5]
  CC50: 263 µM
[7]
  selectivity ratio: > 167

## CCN(CC)CCNC(=O)c1cc(C2CC2)nc2c1cnn2C(C)C
[5]
  CC50: 89.9 µM

## CNCCCNC(=O)c1cc(C2CC2)nc2c1cnn2C(C)C
[2]
  CC50 at 72 h: 183 µM

## CCn1ncc2c(C(=O)NCCNC)cc(C)nc21
[2]
  CC50 at 72 h: > 300 µM
[3]
  selectivity ratio: > 5.1

## CC(CN(C)C)NC(=O)c1cc(C2CC2)nc2c1cnn2C(C)C (centres undefined)
[2]
  CC50 at 72 h: 72.6 µM
[7]
  selectivity ratio: > 7500

## CC(CN(C)C)NC(=O)c1cc(C(C)C)nc2c1cnn2C(C)C (centres undefined)
[3]
  selectivity ratio: > 100
[6]
  selectivity ratio: > 100

## CNCCNC(=O)c1cc(C(C)C)nc2c1cnn2C(C)C
[3]
  selectivity ratio: > 250
[6]
  selectivity ratio: > 1000

## COCCNC(=O)c1cc(C2CC2)nc2c1cnn2C(C)C
[2]
  CC50 at 72 h: 178 µM

## CCn1ncc2c(C(=O)NCCN(C)C)cc(C)nc21
[2]
  CC50 at 72 h: > 300 µM
[3]
  selectivity ratio: > 16.4

## CC(C)c1cc(C(=O)NCCO)c2cnn(C(C)C)c2n1
[2]
  CC50 at 72 h: > 100 µM
[3]
  selectivity ratio: > 10.2

## CCN(CC)CCCNC(=O)c1cc(C2CC2)nc2c1cnn2C(C)C
[5]
  CC50: 43.8 µM

## CNCCNC(=O)c1cc(C2CC2)nc2c1cnn2C(C)C
Enterovirus A71 [15]
  EC50: 200 nM
Coxsackievirus B3
  EC50: 200 nM
[2]
  CC50 at 72 h: 236 µM
[5]
  CC50: 236 µM
[7]
  selectivity ratio: > 500
Enterovirus D68 [4]
  EC50: 200 nM
Enterovirus D68 [8]
  EC50: 200 nM
Enterovirus D68 [19]
  EC50: 200 nM
Enterovirus D68 [16]
  EC50: 200 nM
[9]
  CC50: 236 µM
[11]
  CC50: 236 µM
Enterovirus D68 [14]
  EC50: 77 nM
Enterovirus
  EC50: 70 nM

## CC(CN)NC(=O)c1cc(C(C)C)nc2c1cnn2C(C)C (centres undefined)
[2]
  CC50 at 72 h: 118 µM

## CC(C)n1ncc2c(C(=O)NCCN3CCCC3)cc(C3CC3)nc21
Enterovirus A71 [15]
  EC50: 200 nM
[2]
  CC50 at 72 h: 46.5 µM

## CC(C)c1cc(C(=O)NCCN(C)C)c2cnn(C(C)C)c2n1
[5]
  CC50: 161 µM
[7]
  selectivity ratio: > 7500
Enterovirus D68 [19]
  EC50: 70 nM
Enterovirus D68 [16]
  EC50: 30 nM
[9]
  CC50: 161 µM
[10]
  CC50: 161 µM
[11]
  CC50: 161 µM
Enterovirus D68 [14]
  EC50: 23 nM
Enterovirus
  EC50: 30 nM

## CNCCNC(=O)c1cc(C2CC2)nc2c1c(C)nn2C(C)(C)C
[5]
  CC50: 31.9 µM
